Measurements as given in the supplement of paper PMC11451515.

Tested on: P12-Ichikawa
Assay: cell viability relative to DMSO control; higher = less cytotoxic
Conditions: 48 h
Method in brief: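 Viability is a per-plate percentage relative to DMSO wells, with cell-free wells as background. CellTiter-Glo One luminescence was read after 48 h at 37°C on 1536-well plates (5 μl) of NOMO1 or SEM (500 cells/well) or P12-Ichikawa (1000 cells/well) leukemia cells. The cells had been adapted for at least four passages in each medium and pin-dosed with library compounds in DMSO from 47 μM to 0.79 nM in 11 threefold steps.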

[1] = HPLM + 10% dialyzed FBS, 0.000781 µM
[2] = HPLM + 10% dialyzed FBS, 0.00234 µM
[3] = HPLM + 10% dialyzed FBS, 0.00702 µM
[4] = HPLM + 10% dialyzed FBS, 0.0211 µM
[5] = HPLM + 10% dialyzed FBS, 0.0632 µM
[6] = HPLM + 10% dialyzed FBS, 0.19 µM
[7] = HPLM + 10% dialyzed FBS, 0.569 µM
[8] = HPLM + 10% dialyzed FBS, 1.71 µM
[9] = HPLM + 10% dialyzed FBS, 5.12 µM
[10] = HPLM + 10% dialyzed FBS, 15.4 µM
[11] = HPLM + 10% dialyzed FBS, 46.1 µM
[12] = RPMI 5 mM glucose + 10% FBS, 0.000781 µM
[13] = RPMI 5 mM glucose + 10% FBS, 0.00234 µM
[14] = RPMI 5 mM glucose + 10% FBS, 0.00702 µM
[15] = RPMI 5 mM glucose + 10% FBS, 0.0211 µM
[16] = RPMI 5 mM glucose + 10% FBS, 0.0632 µM
[17] = RPMI 5 mM glucose + 10% FBS, 0.19 µM
[18] = RPMI 5 mM glucose + 10% FBS, 0.569 µM
[19] = RPMI 5 mM glucose + 10% FBS, 1.71 µM
[20] = RPMI 5 mM glucose + 10% FBS, 5.12 µM
[21] = RPMI 5 mM glucose + 10% FBS, 15.4 µM
[22] = RPMI 5 mM glucose + 10% FBS, 46.1 µM
[23] = RPMI 5 mM glucose + 10% dialyzed FBS, 0.000781 µM
[24] = RPMI 5 mM glucose + 10% dialyzed FBS, 0.00234 µM
[25] = RPMI 5 mM glucose + 10% dialyzed FBS, 0.00702 µM
[26] = RPMI 5 mM glucose + 10% dialyzed FBS, 0.0211 µM
[27] = RPMI 5 mM glucose + 10% dialyzed FBS, 0.0632 µM
[28] = RPMI 5 mM glucose + 10% dialyzed FBS, 0.19 µM
[29] = RPMI 5 mM glucose + 10% dialyzed FBS, 0.569 µM
[30] = RPMI 5 mM glucose + 10% dialyzed FBS, 1.71 µM
[31] = RPMI 5 mM glucose + 10% dialyzed FBS, 5.12 µM
[32] = RPMI 5 mM glucose + 10% dialyzed FBS, 15.4 µM
[33] = RPMI 5 mM glucose + 10% dialyzed FBS, 46.1 µM

Compound | cell viability [1] [%] | cell viability [2] [%] | cell viability [3] [%] | cell viability [4] [%] | cell viability [5] [%] | cell viability [6] [%] | cell viability [7] [%] | cell viability [8] [%] | cell viability [9] [%] | cell viability [10] [%] | cell viability [11] [%] | cell viability [12] [%] | cell viability [13] [%] | cell viability [14] [%] | cell viability [15] [%] | cell viability [16] [%] | cell viability [17] [%] | cell viability [18] [%] | cell viability [19] [%] | cell viability [20] [%] | cell viability [21] [%] | cell viability [22] [%] | cell viability [23] [%] | cell viability [24] [%] | cell viability [25] [%] | cell viability [26] [%] | cell viability [27] [%] | cell viability [28] [%] | cell viability [29] [%] | cell viability [30] [%] | cell viability [31] [%] | cell viability [32] [%] | cell viability [33] [%]
CC1(C)CCC(C)(C)c2cc(NC(=O)c3ccc(C(=O)O)cc3)ccc21 | 73.7 | 116 | 101 | 102 | 107 | 106 | 105 | 104 | 106 | 101 | 96.4 | 102 | 103 | 93.9 | 96.2 | 103 | 97.8 | 104 | 109 | 101 | 98.9 | 88.5 | 96.2 | 104 | 98.4 | 108 | 110 | 105 | 116 | 108 | 107 | 102 | 79.6
CCc1nc(N)nc(N)c1-c1ccc(Cl)cc1 | 93.6 | 97.3 | 89.5 | 98.6 | 95.5 | 89.1 | 76.1 | 56.5 | 46.2 | 33.8 | 21.9 | 91.2 | 91.9 | 88.6 | 93.4 | 107 | 97 | 98.4 | 90 | 87.3 | 68.4 | 57.1 | 82.2 | 91.3 | 89 | 96.6 | 95.3 | 90.1 | 84.3 | 85.2 | 86.5 | 48.3 | 24.4
CN(C)CCc1c[nH]c2ccc(Cn3cncn3)cc12 | 96.3 | 95 | 107 | 101 | 107 | 97 | 101 | 22.8 | 6.71 | 7.05 | 6.29 | 92 | 101 | 91.4 | 105 | 105 | 69.3 | 91.1 | 30.9 | 8.08 | 6.52 | 4.97 | 93.7 | 89.5 | 88.3 | 92.4 | 97.3 | 68.3 | 76.5 | 22.3 | 7.34 | 6.02 | 5.62
C[C@@H](Cc1cc2c(c(C(N)=O)c1)N(CCCO)CC2)NCCOc1ccccc1OCC(F)(F)F | 91.9 | 115 | 101 | 116 | 113 | 112 | 119 | 114 | 112 | 118 | 110 | 99.4 | 111 | 106 | 130 | 116 | 123 | 115 | 101 | 112 | 117 | 102 | 90.4 | 104 | 103 | 105 | 111 | 109 | 109 | 110 | 99.4 | 109 | 97.5
CCC(=O)N1CCN(CC1)C2=C(C=C(C=C2)N3C(=O)\C=C/C4=C3C5=CC(=CC=C5N=C4)C6=CN=C7C=CC=CC7=C6)C(F)(F)F | 89 | 102 | 99.2 | 97.1 | 82.9 | 85.3 | 81.8 | 77.3 | 73.8 | 70.9 | 77 | 84.7 | 90.8 | 84 | 75.5 | 68 | 65.3 | 62.9 | 61.3 | 59.6 | 56.5 | 49.8 | 86.4 | 98.3 | 97.6 | 80.5 | 77.2 | 71.2 | 68.4 | 57.7 | 60.8 | 48.3 | 54.4
Clc1ccc(C(c2ccccc2Cl)C(Cl)Cl)cc1 (stereo unspecified) | 113 | 119 | 116 | 112 | 118 | 119 | 107 | 110 | 103 | 95.4 | 91.6 | 122 | 118 | 116 | 109 | 119 | 107 | 104 | 116 | 106 | 103 | 94.4 | 122 | 120 | 109 | 112 | 116 | 107 | 106 | 106 | 103 | 99.6 | 97.2
CN(CC(=O)N(Cc1ccc(C2CCCCC2)cc1)c1ccc(C(=O)O)c(O)c1)[S+](=O)([O-])c1c(F)c(F)c(F)c(F)c1F | 93 | 100 | 94.2 | 102 | 106 | 107 | 107 | 101 | 91.7 | 75.3 | 5.29 | 93 | 100 | 99.5 | 101 | 99.7 | 103 | 100 | 105 | 101 | 92.5 | 51.3 | 87.8 | 90.1 | 91.4 | 93.9 | 96.6 | 87.1 | 94.3 | 96 | 97.9 | 79.6 | 29.6
NC(=O)N1CCC(CC(=O)N2CCC([C@H]3c4ncc(Br)cc4CCc4cc(Cl)cc(Br)c43)CC2)CC1 | 107 | 116 | 114 | 114 | 114 | 108 | 96.9 | 95.2 | 78.6 | 71.9 | 52.9 | 107 | 104 | 125 | 121 | 117 | 106 | 87.6 | 85.9 | 75.4 | 62.9 | 42.5 | 108 | 108 | 118 | 112 | 109 | 110 | 94.6 | 90 | 78.9 | 69.7 | 42.2
COC(=O)CCC1=C(C)C2=CC3=NC(=CC4=C(C)C(=C([NH]4)C=C\5N=C(C=C1[NH]2)\C(=C5C)CCC(O)=O)C=C)\C6=C\C=C(/[C@@H](C(=O)OC)[C@@]36C)C(=O)OC | 98.8 | 103 | 101 | 111 | 102 | 105 | 109 | 106 | 101 | 98.7 | 93.3 | 93.3 | 101 | 104 | 100 | 97.1 | 100 | 103 | 96.8 | 88.9 | 77.1 | 60.9 | 88 | 94.7 | 97.8 | 95.6 | 103 | 96.9 | 105 | 104 | 94.6 | 84.9 | 82.9
CC[C@H](CO)Nc1nc(NCc2ccccc2)c2ncn(C(C)C)c2n1 | 85.4 | 93.9 | 95.1 | 91.7 | 94.8 | 95.1 | 93.1 | 86.4 | 91.6 | 85.2 | 79.5 | 91.2 | 93.1 | 93.2 | 92.9 | 98.1 | 95.2 | 95.9 | 82.8 | 86.4 | 77.6 | 78.2 | 91.2 | 94.4 | 95.5 | 83.9 | 89.5 | 94.3 | 92 | 88.7 | 87.3 | 86.6 | 82
Cn1cnc(N)c2ncnc1-2 | 110 | 116 | 125 | 127 | 115 | 116 | 124 | 110 | 88.5 | 5.12 | 4.04 | 97.1 | 119 | 114 | 117 | 121 | 114 | 126 | 113 | 83.6 | 6.1 | 3.21 | 97.9 | 109 | 117 | 128 | 123 | 130 | 124 | 113 | 91.9 | 7.88 | 3.87
O=c1oc2cc(O)ccc2s1 | 114 | 115 | 111 | 115 | 116 | 117 | 115 | 110 | 108 | 106 | 104 | 115 | 131 | 95.8 | 116 | 117 | 116 | 117 | 107 | 108 | 107 | 96.8 | 104 | 126 | 109 | 112 | 111 | 116 | 114 | 104 | 100 | 103 | 85.9
CCC(=O)O[C@@]1(CC[C@H]2[C@@H]3CCC/4=C/C(=O)CC[C@]4(C)[C@H]3CC[C@]12C)C(=O)CO | 99.2 | 107 | 104 | 115 | 110 | 116 | 125 | 107 | 98.9 | 83.7 | 83.1 | 91.6 | 122 | 109 | 113 | 112 | 118 | 109 | 109 | 106 | 78.9 | 69.1 | 102 | 103 | 108 | 109 | 98.6 | 117 | 116 | 106 | 110 | 79.9 | 63
O=C(CCCN1CCC(O)(c2ccc(Cl)cc2)CC1)c1ccc(F)cc1 | 105 | 107 | 109 | 116 | 119 | 123 | 111 | 111 | 119 | 127 | 107 | 106 | 112 | 111 | 124 | 124 | 132 | 116 | 126 | 124 | 131 | 95.9 | 108 | 114 | 117 | 111 | 116 | 131 | 115 | 115 | 119 | 112 | 99.8
CCC(=O)NC[C@H](Cc1ccc(OCCc2nc(-c3ccccc3)oc2C)cc1)N/C(C)=C\C(=O)c1ccc(C(F)(F)F)cc1 | 102 | 97.6 | 93.8 | 104 | 109 | 106 | 91.1 | 99.1 | 76 | 35 | 8.82 | 95.8 | 98 | 103 | 112 | 106 | 110 | 77.7 | 105 | 66.7 | 50.4 | 7.18 | 98.3 | 99.4 | 100 | 104 | 99.3 | 99.7 | 83.6 | 86.8 | 62.1 | 53.3 | 11.8
CCCC[S+](=N)([O-])CCC(N)C(=O)O (stereo unspecified) | 113 | 124 | 127 | 126 | 132 | 137 | 135 | 139 | 131 | 128 | 6.85 |  |  |  |  |  |  |  |  |  |  |  |  |  |  |  |  |  |  |  |  |  | 
